Consider 21 molecules from ChEMBL document CHEMBL6109142 (J Med Chem, 2025).

The target of data set [1] is T1, Transmembrane protease serine 2 (Homo sapiens, UniProt O15393). Nature of the data set: Inhibition of recombinant TMPRSS2 (unknown origin) extracted from baculovirus infected in Sf9 cells assessed as residual activity using Boc-QAR-AMC as substrate at 1 nM measured after 1 hr by fluorescence based analysis relative to control.
A further data set concerns Calu-3. Nature of the data set: Cytotoxicity against human Calu-3 cells assessed as cell viability at 10 uM measured after 72 hrs by luminescence based Cell-Titer-Glo assay. It is filed as toxicity. To be noted: calu-3, 72 h.
Data set [2] concerns the target T1, Transmembrane protease serine 2. Nature of the data set: Inhibition of recombinant TMPRSS2 (unknown origin) extracted from baculovirus infected in Sf9 cells using Boc-QAR-AMC as substrate measured after 1 hr by fluorescence based analysis.
Data set [3] has as its system SARS-CoV-2. The data set can be described thus: Antiviral activity against SARS-CoV-2 EG.5.1 infected in human Calu-3 cells assessed as reduction in residual intracellular nucleocapsid value at 1 uM preincubated with cells for 3 hrs followed by viral infection and measured after 48 hrs by immunostaining based analysis. It is filed as functional, organism-based. To be noted: Severe acute respiratory syndrome coronavirus 2, time 51.0 hrs.

Data set [4] relates to SARS-CoV-2. The data set can be described thus: Antiviral activity against SARS-CoV-2 pseudotyped with delta spike protein infected in human Calu-3 cells assessed as prevention of virus-like particle cellular entry at 300 nM preincubated with cells for 3 hrs followed by viral infection and measured after 72 hrs by ONE-Glo-Ex luciferase assay relative to control. The data set is classed as functional, Severe acute respiratory syndrome coronavirus 2. The conditions noted are these: time 75 hrs.

For a further data set, the target named is Procathepsin L (Homo sapiens, UniProt P07711). The data set can be described thus: Inhibition of recombinant human C-terminal 6 his-tagged Cathepsin L assessed as inhibition constant using Z-LR-AMC as peptide substrate incubated for 1 hr by fluorescence based analysis.
Data set [5] concerns SARS-CoV-2. Nature of the data set: Antiviral activity against SARS-CoV-2 EG.5.1 infected in human Calu-3 cells preincubated with cells for 3 hrs followed by viral infection and measured after 48 hrs by immunostaining based analysis. The conditions noted are these: Severe acute respiratory syndrome coronavirus 2, EG.5.1, Calu-3. It is filed as functional, organism-based.
Data set [6] relates to SARS-CoV-2. Nature of the data set: Antiviral activity against SARS-CoV-2 JN.1 infected in human Calu-3 cells preincubated with cells for 3 hrs followed by viral infection and measured after 48 hrs by immunostaining based analysis. The data set is classed as functional, organism-based. The conditions noted are these: Severe acute respiratory syndrome coronavirus 2, JN.1, Calu-3.

In a further data set the target is Coagulation factor X (Homo sapiens, UniProt P00742). Nature of the data set: Inhibition of recombinant human C-terminal 10 his-tagged FXa extracted from baculovirus infected in Sf9 cells assessed as inhibition constant using Mca-RPKPVE-Nval-WRK(Dnp)-NH2 as substrate incubated for 1 hr by fluorescence based analysis.
Coagulation factor X, sequence (P00742 41-179 limits assumed): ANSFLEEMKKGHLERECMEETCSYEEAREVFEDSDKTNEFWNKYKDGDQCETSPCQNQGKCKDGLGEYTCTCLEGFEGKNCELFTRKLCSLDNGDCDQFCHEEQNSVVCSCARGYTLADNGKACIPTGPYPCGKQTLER
Coagulation factor X, sequence (P00742 235-488 limits assumed): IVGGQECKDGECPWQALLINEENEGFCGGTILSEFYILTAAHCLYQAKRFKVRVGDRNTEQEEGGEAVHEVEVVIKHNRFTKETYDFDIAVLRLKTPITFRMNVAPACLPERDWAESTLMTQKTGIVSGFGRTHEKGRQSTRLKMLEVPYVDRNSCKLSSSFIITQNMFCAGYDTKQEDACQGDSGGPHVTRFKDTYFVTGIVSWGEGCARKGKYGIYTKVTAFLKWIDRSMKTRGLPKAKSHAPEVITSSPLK
For data set [7], the system named is SARS-CoV-2. Nature of the data set: Antiviral activity against SARS-CoV-2 pseudotyped with delta spike protein infected in human Calu-3 cells assessed as prevention of virus-like particle cellular entry at 300 nM preincubated with cells for 3 hrs followed by viral infection and measured after 72 hrs by ONE-Glo-Ex luciferase assay. The data set is classed as functional, organism-based. To be noted: Severe acute respiratory syndrome coronavirus 2, time 75.0 hrs.

For data set [8], the system named is SARS-CoV-2. The data set can be described thus: Antiviral activity against SARS-CoV-2 EG.5.1 infected in human Calu-3 cells assessed as reduction in residual intracellular nucleocapsid value at 1 uM preincubated with cells for 3 hrs followed by viral infection and measured after 48 hrs by immunostaining based analysis relative to control. The conditions noted are these: time 51 hrs. The data set is classed as functional, Severe acute respiratory syndrome coronavirus 2.

Data set [9] can be described thus: Cytotoxicity against human Calu-3 cells assessed as cell viability measured after 72 hrs by luminescence based Cell-Titer-Glo assay. The data set is classed as toxicity.
The target of data set [10] is T1, Transmembrane protease serine 2. Nature of the data set: Inhibition of recombinant das TMPRSS2 (unknown origin) extracted from baculovirus infected in Sf9 cells assessed as inhibition constant using Boc-QAR-AMC as substrate measured after 1 hr by fluorescence based analysis.

Molecules are shown by their SMILES. Calls of active or inactive are those of the source. The rule behind the calls is not given here.

T1 sequence (O15393 1-255 limits assumed): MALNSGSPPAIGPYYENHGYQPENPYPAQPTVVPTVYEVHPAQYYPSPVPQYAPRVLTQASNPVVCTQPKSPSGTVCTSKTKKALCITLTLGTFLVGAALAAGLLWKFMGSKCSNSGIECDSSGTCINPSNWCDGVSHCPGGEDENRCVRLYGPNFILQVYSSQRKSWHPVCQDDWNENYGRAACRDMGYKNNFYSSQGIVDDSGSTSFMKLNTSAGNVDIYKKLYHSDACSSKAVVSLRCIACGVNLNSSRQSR
T1 sequence (O15393 256-492 limits assumed): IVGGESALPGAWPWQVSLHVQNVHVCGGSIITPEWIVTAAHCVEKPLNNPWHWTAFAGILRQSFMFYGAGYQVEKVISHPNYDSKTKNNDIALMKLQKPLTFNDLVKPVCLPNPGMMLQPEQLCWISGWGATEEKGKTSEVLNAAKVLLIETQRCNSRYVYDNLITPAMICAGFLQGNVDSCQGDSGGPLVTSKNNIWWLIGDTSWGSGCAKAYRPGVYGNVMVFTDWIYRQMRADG

As usually defined, the IC50 is the point on the concentration scale where inhibition reaches its midpoint. With `N=C(N)NCCC[C@H](NC(=O)OCc1ccccc1)C(=O)N[C@@H](CCC(N)=O)C(=O)N[C@@H](Cc1ccccc1)C(=O)N[C@@H](CCCNC(=N)N)C(=O)c1nc2ccccc2s1`, the Activity is 7% in data set [1], “Non-toxic” in the data set on Calu-3 and 33% in the data set with SARS-CoV-2 [4]. Besides, the IC50 in data set [2] was found to be 1.4 nM. For the same molecule, the result with SARS-CoV-2 [3] was Active.
In the same order, the values of `CN(C)C(=O)CC[C@H](NC(=O)CCCCNC(=N)N)C(=O)N[C@@H](Cc1ccccc1)C(=O)N[C@@H](CCCNC(=N)N)C(=O)c1nc2ccccc2s1` are 16%, “Non-toxic”, 18%, 0.62 nM and “Active”.
By EC50 is commonly meant the concentration that produces a half-maximal response. A word on the Ki: it is a dissociation constant, usually derived from enzyme kinetics or from competition with a known ligand. As to `COCCC(=O)N[C@@H](CCC(N)=O)C(=O)N[C@@H](Cc1ccccc1)C(=O)N[C@@H](CCCNC(=N)N)C(=O)c1nc2ccccc2s1`, the Activity in data set [1] is 2%; in the data set on Calu-3 it was “Non-toxic”; in the data set with SARS-CoV-2 [4], 17%. Moreover, the inhibition entry at Procathepsin L was “inactive”. Also, the values for the EC50 with SARS-CoV-2 [5] and in the data set on SARS-CoV-2 [6] were 4.1 nM and 1.5 nM, respectively. The Ki at Coagulation factor X stood at 102 nM. Further, in data set [2], the IC50 was 0.59 nM. Further, in the data set on SARS-CoV-2 [3], the result was Active.
As for `N=C(N)NCCC[C@H](NC(=O)[C@H](Cc1ccccc1)NC(=O)[C@@H]1CCC(=O)NCCCC(=O)N1)C(=O)c1nc2ccccc2s1`, the Activity in data set [1] is 3%; in the data set on Calu-3 it was “Non-toxic”; with SARS-CoV-2 [4] it was 20%. For the same molecule, the IC50 in [2] worked out at 1 nM. Also, the outcome in the data set on SARS-CoV-2 [3] was Active.
In the same order, the values of `N=C(N)NCCC[C@H](NC(=O)[C@H](Cc1ccccc1)NC(=O)[C@H](CCC(N)=O)NC(=O)CCO)C(=O)c1nc2ccccc2s1` are 10%, “Non-toxic”, 24%, 1.4 nM and “Active”.
With `CC(=O)N[C@@H](CCC(N)=O)C(=O)N[C@@H](Cc1ccccc1)C(=O)N[C@@H](CCCNC(=N)N)C(=O)c1nc2ccccc2[nH]1`, the result with SARS-CoV-2 [7] was Active.
In the case of `CC(=O)N[C@@H](CCC(N)=O)C(=O)N[C@@H](CC1CCCCC1)C(=O)N[C@@H](CCCNC(=N)N)C(=O)c1nc2ccccc2s1`, the Activity in [1] is 18%; with Calu-3, “Non-toxic”; in the data set with SARS-CoV-2 [4], 13%. In addition, the IC50 in data set [2] came to 1.3 nM. Further, the result in the data set with SARS-CoV-2 [3] was Active.
For `N=C(N)NCCCCC(=O)N[C@@H](CC(N)=O)C(=O)N[C@@H](Cc1ccccc1)C(=O)N[C@@H](CCCNC(=N)N)C(=O)c1nc2ccccc2s1`, the Activity in [1] is 11%; with Calu-3 it was “Non-toxic”; with SARS-CoV-2 [4] it was 19%. Besides, the IC50 in data set [2] was determined as 0.87 nM. Also, the result in the data set with SARS-CoV-2 [3] was Active.
`CC(C)[C@H](NC(=O)[C@H](Cc1cscn1)NC(=O)CCc1ccccc1)C(=O)N[C@@H](CCCNC(=N)N)C(=O)c1nc2ccccc2s1`: the Activity in data set [1] was 34%; in the data set with Calu-3 it was “Non-toxic”; in the data set with SARS-CoV-2 [4], 15%. Also, the IC50 in data set [2] amounted to 3 nM. Besides, the outcome in the data set with SARS-CoV-2 [3] was Active.
As to `CC(=O)N[C@@H](CCC(N)=O)C(=O)N[C@@H](Cc1ccccc1)C(=O)N[C@@H](CCCNC(=N)N)C(=O)CN1CCCCC1`, the outcome in the data set on SARS-CoV-2 [7] was Active.
As to `N=C(N)NCCCCC(=O)N[C@@H](CCC(N)=O)C(=O)N[C@@H](Cc1ccccc1)C(=O)N[C@@H](CCCNC(=N)N)C(=O)c1nc2ccccc2s1`, the Activity in [1] was 16%; with Calu-3, “Non-toxic”; in the data set with SARS-CoV-2 [4], 13%. Also, the IC50 in [2] amounted to 1.4 nM. Also, the outcome in the data set with SARS-CoV-2 [3] was Active.
Take `N=C(N)NCCCCC(=O)N[C@@H](CCC(N)=O)C(=O)N[C@@H](Cc1ccccc1)C(=O)N[C@@H](CCCNC(=N)N)C(=O)c1nccs1`: the Activity in [1] is 20%; in the data set on Calu-3, “Non-toxic”; in the data set with SARS-CoV-2 [8], 14%; in the data set with SARS-CoV-2 [4] it was 20%. In addition, the IC50 in data set [2] amounted to 0.74 nM. Also, the result in the data set with SARS-CoV-2 [3] was Active.
Consider `N=C(N)NCCCCC(=O)N[C@@H](Cc1ccccc1)C(=O)N[C@@H](Cc1ccccc1)C(=O)N[C@@H](CCCNC(=N)N)C(=O)c1nc2ccccc2s1`, for which the Activity is 10% in [1], “Non-toxic” with Calu-3 and 23% in the data set with SARS-CoV-2 [4]. The IC50 in data set [2] turned out to be 0.66 nM. In addition, in the data set with SARS-CoV-2 [3], the outcome was Active.
In the same order, the values of `N=C(N)NCCCCC(=O)N[C@H](CCC(N)=O)C(=O)N[C@@H](Cc1ccccc1)C(=O)N[C@@H](CCCNC(=N)N)C(=O)c1nc2ccccc2s1` are 28%, “Non-toxic”, 15%, 1.4 nM and “Active”.
In the same order, the values of `C[C@H](NC(=O)CCCCNC(=N)N)C(=O)N[C@@H](Cc1ccccc1)C(=O)N[C@@H](CCCNC(=N)N)C(=O)c1nc2ccccc2s1` are 8%, “Non-toxic”, 14%, 0.66 nM and “Active”.
A word on the CC50: it is the concentration at which the toxic effect on the cells reaches its halfway point. For `CS(=O)(=O)N[C@@H](CCC(N)=O)C(=O)N[C@@H](Cc1ccccc1)C(=O)N[C@@H](CCCNC(=N)N)C(=O)c1nccs1`, the figures for the Activity (in data set [1]; with Calu-3; with SARS-CoV-2 [4]) were 11%, “Non-toxic” and 14%, respectively. Also, the inhibition result on Procathepsin L was “inactive”. Besides, the EC50 in the data set on SARS-CoV-2 [5] was 21.7 nM; with SARS-CoV-2 [6], 8.5 nM. For the same molecule, in data set [9], the CC50 at 72 h was 110000 nM. Moreover, the Ki at Coagulation factor X came to 9.2 nM. The IC50 in data set [2] is 0.87 nM. Besides, the outcome in the data set with SARS-CoV-2 [3] was Active.
On to `CC(=O)N[C@@H](CCC(N)=O)C(=O)N[C@@H](Cc1ccccc1)C(=O)N[C@@H](CCCNC(=N)N)C(=O)c1nccn1C`, for which the outcome in the data set with SARS-CoV-2 [7] was Active.
On to `CCOC(=O)N[C@@H](CCCNC(=N)N)C(=O)N[C@@H](CCC(N)=O)C(=O)N[C@@H](Cc1ccccc1)C(=O)N[C@@H](CCCNC(=N)N)C(=O)c1nc2ccccc2s1`, for which the Activity was 3% in [1], “Non-toxic” with Calu-3 and 17% with SARS-CoV-2 [4]. Besides, the figures for the Ki (in data set [10]; at Procathepsin L) were 0.095 nM and 695 nM, respectively. The EC50 turned out to be 3.9 nM in the data set with SARS-CoV-2 [5] and 1.3 nM in the data set with SARS-CoV-2 [6]. The IC50 in data set [2] is 0.89 nM. For the same molecule, the outcome in the data set on SARS-CoV-2 [3] was Active.
As for `CS(=O)(=O)N[C@@H](CCC(N)=O)C(=O)N[C@@H](Cc1ccccc1)C(=O)N[C@@H](CCCNC(=N)N)C(=O)c1nc2ccccc2s1`, the Activity in data set [1] was 13%; with Calu-3, “Non-toxic”; in the data set on SARS-CoV-2 [4], 16%. Further, the inhibition entry on Procathepsin L is “inactive”. The EC50 in the data set on SARS-CoV-2 [5] is 29.1 nM; with SARS-CoV-2 [6], 3.3 nM. The result in the data set with SARS-CoV-2 [3] was Active.
For `N=C(N)NCCCCC(=O)N[C@@H](CCC(N)=O)C(=O)N[C@@H](CO)C(=O)N[C@@H](CCCNC(=N)N)C(=O)c1nc2ccccc2s1`, the Activity was 19% in data set [1] and “Non-toxic” in the data set on Calu-3. For the same molecule, the IC50 in [2] was 3.2 nM. For the same molecule, the result in the data set with SARS-CoV-2 [3] was Active.
As to `CN(C)C(=O)COC(=O)Cc1ccc(OC(=O)c2ccc(NC(=N)N)cc2)cc1` [CAMOSTAT], the EC50 with SARS-CoV-2 [5] came to 201 nM; in the data set on SARS-CoV-2 [6], 7.5 nM. Moreover, the CC50 at 72 h in [9] came to 110000 nM.
